Values of other authors, collected in patent US20190083388A1, “SYNTHENTIC TRANSDERMAL CANNABIDIOL FOR THE TREATMENT OF FOCAL EPILEPSY IN ADULTS” (ZYNERBA PHARMACEUTICALS, INC., priority 2017, published 2019).
Where two headings read alike, the source gives them in different places.

Columns and labels:
[1] = not given; remark: listed apart in the source
CB2 receptors = CB2 receptors (Homo sapiens, UniProt P34972)
CB2 receptors, sequence (P34972 whole entry): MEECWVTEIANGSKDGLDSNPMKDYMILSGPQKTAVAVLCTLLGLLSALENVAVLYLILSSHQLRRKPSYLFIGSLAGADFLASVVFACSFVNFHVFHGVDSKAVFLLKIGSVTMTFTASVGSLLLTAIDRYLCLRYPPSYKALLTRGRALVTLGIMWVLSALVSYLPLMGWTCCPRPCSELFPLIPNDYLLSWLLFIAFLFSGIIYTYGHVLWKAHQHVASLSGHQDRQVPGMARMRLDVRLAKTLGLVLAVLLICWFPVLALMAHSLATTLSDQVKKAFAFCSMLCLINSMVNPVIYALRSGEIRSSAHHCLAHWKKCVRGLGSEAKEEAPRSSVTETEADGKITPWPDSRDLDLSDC

## C=C(C)C1CCC(C)=CC1c1c(O)cc(CCCCC)cc1O (stereo not shown) [CBD, 2-[3-methyl-6-(1-methylethenyl)-2-cyclohexen-1-yl]-5-pentyl-1,3-benzenediol]
oral
  bioavailability: ≈ 6%
Transdermal delivery
  bioavailability: about 25%
[1]
  solubility in water: virtually insoluble
CB2 receptors
  affinity for CB2 receptors: low affinity
